Reference: the Kinase Knowledgebase extract (Sharma et al. 2016)

How the values were obtained:
[1] = molecular target: MAPK14 (UniProt Q16539); assay: Enzyme Assay
[2] = molecular target: MAPK14 (human) (UniProt Q16539); assay: Cell-Based Assay; details: monocyte
[3] = molecular target: MAPK14 (UniProt Q16539); assay: Enzyme Assay; remark: listed apart in the source

Chain of MAPK14 (human) (Q16539 whole entry, looked up): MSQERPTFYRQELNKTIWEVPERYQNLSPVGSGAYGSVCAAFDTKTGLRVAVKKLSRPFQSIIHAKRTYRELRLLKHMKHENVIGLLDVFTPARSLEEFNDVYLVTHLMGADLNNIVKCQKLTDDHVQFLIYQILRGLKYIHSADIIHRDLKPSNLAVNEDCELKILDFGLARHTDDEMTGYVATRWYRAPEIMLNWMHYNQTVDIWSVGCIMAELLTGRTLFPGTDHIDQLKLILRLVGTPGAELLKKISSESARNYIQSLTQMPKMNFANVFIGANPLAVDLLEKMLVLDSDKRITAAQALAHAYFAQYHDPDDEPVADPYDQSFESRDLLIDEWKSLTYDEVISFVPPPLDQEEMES
Chain of MAPK14 (Q16539 whole entry, looked up): as above

Compound	IC50 [1] [nM]	IC50 [2] [nM]	IC50 [3] [nM]
O=[N+]([O-])c1ccc(-c2nc(-c3ccc(F)cc3)c(-c3ccccc3)[nH]2)cc1	> 10000	> 5000	> 2500
C[S+]([O-])c1ccc(-n2cnc(-c3ccc(F)cc3)c2-c2ccncc2)cc1 (configuration not stated)	–	2300	–
Fc1ccc(-c2ncn(CCCN3CCOCC3)c2-c2cccnc2)cc1	> 10000	–	–
Fc1ccc(-c2ncn(CCCN3CCOCC3)c2-c2ccccn2)cc1	> 10000	–	–
CC(=O)OCCc1nc(-c2ccncc2)c(-c2ccc(F)cc2)[nH]1	> 10000	–	–
CCc1nc[nH]c1-c1ccncc1	> 30000	> 5000	> 2500
CC(C)(C)C1=CC(O)(C(C)(C)C)CC(c2nc(-c3ccc(F)cc3)c(-c3ccncc3)[nH]2)=C1 (configuration not stated)	> 30000	> 5000	> 2500
O=C1CN(c2ccc(-c3nc(-c4ccc(F)cc4)c(-c4ccncc4)[nH]3)cc2)NO1	30	–	–
CC(=O)OCCn1cnc(-c2ccc(F)cc2)c1-c1ccncc1	50	–	–
Cc1cc(-c2[nH]c(-c3ccc([S+](C)[O-])cc3)nc2-c2ccc(F)cc2)ccn1 (configuration not stated)	–	430	–
Cc1cc(-c2c(-c3ccc(F)cc3)ncn2CCCN2CCOCC2)ccn1	3000	–	–
Fc1ccc(-c2ncn(CCCNCc3ccccc3)c2-c2ccncc2)cc1	–	590	–

The remaining lines, values ahead:

IC50 [1] [nM]	IC50 [2] [nM]	IC50 [3] [nM]	Compound
> 50000	–	–	Clc1nc2n(c1-c1ccncc1)CCC2
3400	2700	–	CSc1ccc(-c2nc3n(c2-c2ccncc2)CCC3)cc1
> 10000	> 10000	–	C[S+]([O-])c1ccc(-c2nc3n(c2-c2ccncc2)CCC3)cc1 (configuration not stated)
5600	> 20000	–	CCSc1ccc(-c2nc3n(c2-c2ccncc2)CCC3)cc1
> 10000	–	–	Fc1ccc(-c2c(-c3ccncc3)nc3n2CCC3)cc1
50	–	–	Clc1ccc(-c2nc3n(c2-c2ccncc2)CCC3)cc1
40	50	–	Clc1cccc(-c2nc3n(c2-c2ccncc2)CCC3)c1
250	–	–	Clc1ccccc1-c1nc2n(c1-c1ccncc1)CCC2
–	1000	–	CSc1cccc(-c2ncn(CCCN3CCOCC3)c2-c2ccncc2)c1
460	–	–	C[S+]([O-])c1ccc(-c2nc(-c3cccs3)c(-c3ccncc3)[nH]2)cc1 (configuration not stated)
3200	700	–	Brc1ccc(-c2nc3n(c2-c2ccncc2)CCC3)cc1
440	–	–	Fc1ccc(-c2ncn(C3CCN(Cc4ccccc4)CC3)c2-c2ccncc2)cc1
3600	4200	–	COc1ccc(-c2nc3n(c2-c2ccncc2)CCC3)cc1
–	> 5000	–	C[S+]([O-])c1cccc(-c2ncn(CCCN3CCOCC3)c2-c2ccncc2)c1 (configuration not stated)
66	170	–	Fc1ccc(-c2nc3n(c2-c2ccncc2)CCC3)cc1
> 10000	> 10000	–	CS(=O)(=O)c1ccc(-c2nc3n(c2-c2ccncc2)CCC3)cc1
